Measured values reported in patent publication US4938897A (Kureha Kagaku Kogyo Kabushiki Kaisha, priority 1985, dated 1990).

Experiments:
[1] = system: 3T3 cells; test: Suppression of proliferation of mouse fibroblasts (3T3), Trypan blue living cell count; assay type: cell-based; conditions: 5 μg/ml
Experimental: (§1) The activity of one of the present substances, 3-dansyloxyestradiol-17β-[[4-[p-{bis(2-chloroethyl)amino}phenyl]butyryloxy]]acetate in suppressing the proliferation of (1) the fibroblasts of mouse (3T3) and (2) transformed fibroblasts of mouse by SV-40 virus (3T3 SV-40) was studied by in vitro tests as follows:
(§2) Into a culture medium consisting of 90% by weight of DALBECCO MEM and 10% of bovine foetus serum, a solution of the test substance in dimethylsulfoxide at a rate of 5 μg/ml was added (dimethylsulfoxide being 1% of the culture medium). After adjusting the pH of the three culture media respectively to 6.5, 7.0 and 7.8, the target cells were implanted into each culture medium at a rate of 2×10^4 cells/ml, and the culture media were incubated at 37° C. in an atmosphere of 5% of carbon dioxide for 3 and 6 days. After ending the incubation, the number of living cells which were not dyed with Trypan blue enumerated in the cultured medium to calculate the rate of suppression of the proliferation of the fibroblasts as follows: [formula] where Nc is the number of the living fibroblasts in control group and Nt is the number of living fibroblasts in the test group both in the unit area.
(§3) The activity of one of the present substance, 3-dansyloxyestradiol-17β-[[2-[p-{bis(2-chloroethyl)amino}phenyl]acetoxy]]acetate in suppressing the proliferation of mouse fibroblasts (3T3) and SV-40 virus-transformed fibroblasts (3T3 SV-40) was examined by the same method as in Example 4 except for (1) the days of incubation of 3 and 5 days instead of 3 and 6 days in Example 4 and (2) the pH of the culture medium of 6.7 instead of 6.7, 7.0 and 7.8 in Example 4.

[2] = system: 3T3 SV-40 cells; test: Suppression of proliferation of mouse fibroblasts transformed by SV-40 virus (3T3 SV-40), Trypan blue living cell count; assay type: cell-based; conditions: for Rate of suppression (%): 3T3 SV-40 cells, 5 μg/ml
Experimental: as §1, §2, §3

[3] = system: 3T3 SV-40 cells vs 3T3 cells; test: Intaking of test substance by 3T3 SV-40 cells compared to 3T3 cells, fluorescence microscope; assay type: cell-based, mouse
Experimental: Intaking of one of the present substances, 3-dansyloxyestradiol-17β-[[4-[p-{bis(2-chloroethyl)amino}phenyl]butyryloxy]]acetate, by mouse fibroblasts (3T3) and mouse transformed fibroblasts by SV-40 virus (3T3 SV-40) was examined with a fluorescence microscope under the following conditions:
Concentration of the test substance: 10 and 50 μg/ml
pH of culture medium: 6.5 and 7.8
Number of implanted cells: 2×10^4 cells/ml
Temperature and days of incubation: 37° C. for 5 days
Fixation: by aqueous 2.5% glutaraldehyde phosphate buffer for 90 minutes
Examination: by using a microscope (made by Olympus, BHS-RFK) with an exciting filter UGI and auxiliary absorption filter Y-475.
In the similar manner to that in Example 6, intaking of one of the present substances, 3-dansyloxyestradiol-17β-[[2-[p-{bis(2-chloroethyl)amino}phenyl]acetoxy]]acetate by mouse fibroblast (3T3) and mouse transformed fibroblast by SV-40 virus (3T3 SV-40) was studied.

[4] = Fluorescent determination (emission wave length); assay type: physicochemical; conditions: for emitted light wave length: ethyl acetate
Excerpt: As a result of fluorescent determination at a wave length of excitation light of 356 nm, the emitted light of 520 nm in wave length with ethyl acetate was observed.
As a result of fluorescent determination at a wave length of excitation light of 357 nm, the emitted light of 525 nm in wave length of this substance with ethyl acetate was observed.
Onto a chromatographic column prepared by filling 400 g of silica gel (made by Merck Co. under the name of Art 7734) into a glass tube of 36 mm in inner diameter and 865 mm in length by using chloroform, a solution of 12 g of the crude product dissolved in 50 ml of chloroform was charged, and the absorbed product was subjected to elution by a flow of chloroform at a flow rate of 7 ml/min, thereby 1400 ml of a fraction showing one spot on the chromatogram were obtained. By condensing the fraction, 9 g of wet product were obtained. The wet product was dissolved in 30 ml of chloroform, and after adding 50 ml of hexane to the prepared solution, the mixture was cooled while stirring thereof, however, since no crystal was precipitated therefrom, the solvent was distilled off therefrom by using an evaporator and the residue was dried under vacuum to obtain 7 g of a solid, fluorescent substance in a yield of 68.2%. […] Its emission fluorescence was 521 nm by the excitation light of 358 nm.

[5] = system: FLOW 4000 cell; test: Suppression of proliferation of human normal renal cells (FLOW 4000); assay type: cell-based; conditions: 5 μg/ml, 37° C.
Experimental: as §2
(§4) The activity of one of the present substance, 3-dansyloxyestradiol-17β-[[4-[p-{bis(2-chloroethyl)amino}phenyl]butyryloxy]]acetate, in suppressing the proliferation of (1) human nomal renal cells (FLOW 4000) and (2) human renal cancer cells (RC) was examined as follows:
(§5) Into the same culture medium as in Example 4, a solution of the test substance dissolved in dimethylsulfoxide was added at a rate of 5 μg/ml (dimethylsulfoxide being 1% of the culture medium), and after adjusting the three culture media respectively to pH of 6.5, 7.0 and 7.8, the cells were implanted into each culture medium at a rate of 2×10^4 cells/ml, and the culture media implanted were incubated for 6 days at 37° C. in an atmosphere of 5% of carbon dioxide. The rate of suppression of the proliferation of the implanted cells was calculated by the same formula as in Example 4, the results being shown in Table 2.

[6] = system: RC cell; test: Suppression of proliferation of human renal cancer cells (RC); assay type: cell-based; conditions: 5 μg/ml, 37° C.; for Rate of suppression (%): RC cell
Experimental: as §2, §4, §5

[7] = system: human renal cancer cells (RC) vs normal human renal cells (FLOW 4000); test: Intaking of test substance by RC cells compared to FLOW 4000 cells, fluorescence microscope; assay type: cell-based; conditions: Example 8; 37° and 40° C. incubation
Experimental: In the similar manner to that in Example 7, intaking of one of the present substances, 3-dansyloxyestradiol-17β-[[4-[p-{bis(2-chloroethyl)amino}phenyl]butyryloxy]]acetate by the normal human renal cells (FLOW 4000) and the human renal cancer cells (RC) was examined by using the same fluorescence microscope as in Example 7. The incubation of the implanted cells was carried out at 37° and 40° C.

[8] = system: mouse; conditions: for reference; cited from earlier work
[9] = pH 6.7, 3 days, 37° C. (Example 6)
[10] = pH 6.7, 5 days, 37° C. (Example 6)

CN(C)c1cccc2c(S(=O)(=O)Oc3ccc4c(c3)CC[C@@H]3[C@@H]4CC[C@]4(C)[C@@H](OC(=O)COC(=O)Cc5ccc(N(CCCl)CCCl)cc5)CC[C@@H]34)cccc12 [3-Dansyloxyestradiol-17β-[[2-[p-{bis(2-chloroethyl)amino}phenyl]acetoxy]]acetate]
Rate of suppression (%) [1, 9]: 25.24% | Rate of suppression (%) [1, 10]: 53.28% | Rate of suppression (%) [2, 9]: 55.72% | Rate of suppression (%) [2, 10]: 85.86% | Intaking of the test substance by 3T3 SV-40 compared to 3T3 ([3]; Example 9, FIG. 8: 5 μg/ml, pH 6.5, 4 days): remarkable as compared to that by 3T3

CN(C)c1cccc2c(S(=O)(=O)Oc3ccc4c(c3)CC[C@@H]3[C@@H]4CC[C@]4(C)[C@H](OC(=O)COC(=O)CCCc5ccc(N(CCCl)CCCl)cc5)CC[C@@H]34)cccc12 [3-dansyloxyestradiol-17α-[[4-[p-{bis(2-chloroethyl)amino}phenyl]butyryloxy]]acetate]
emitted light wave length ([4]; excitation light 357 nm): 525 nm

CN(C)c1cccc2c(S(=O)(=O)Oc3ccc4c(c3)CC[C@@H]3[C@@H]4CC[C@]4(C)[C@@H](OC(=O)COC(=O)c5ccc(N(CCCl)CCCl)cc5)CC[C@@H]34)cccc12 [3-dansyloxyestradiol-17β-[[1-[p-{bis(2-chloroethyl)amino}phenyl]carbonyloxy]]acetate]
emission fluorescence ([4]; excitation light 358 nm): 521 nm

CN(C)c1cccc2c(S(=O)(=O)Oc3ccc4c(c3)CC[C@@H]3[C@@H]4CC[C@]4(C)[C@@H](OC(=O)COC(=O)CCCc5ccc(N(CCCl)CCCl)cc5)CC[C@@H]34)cccc12 [3-dansyloxyestradiol-17β-[[4-[p-{bis(2-chloroethyl)amino}phenyl]butyryloxy]]acetate]
Rate of suppression (%) ([1]; pH 6.5, 3 days, 37° C.): 16.8% | Rate of suppression (%) ([1]; pH 6.5, 6 days, 37° C.): 14.76% | Rate of suppression (%) ([1]; pH 7.0, 3 days, 37° C.): 6.45% | Rate of suppression (%) ([1]; pH 7.0, 6 days, 37° C.): 20.03% | Rate of suppression (%) ([1]; pH 7.8, 3 days, 37° C.): 7.87% | Rate of suppression (%) ([1]; pH 7.8, 6 days, 37° C.): 11.30% | Rate of suppression (%) ([2]; pH 6.5, 3 days, 37° C.): 64.19% | Rate of suppression (%) ([2]; pH 6.5, 6 days, 37° C.): 91.60% | Rate of suppression (%) ([2]; pH 7.0, 3 days, 37° C.): 55.80% | Rate of suppression (%) ([2]; pH 7.0, 6 days, 37° C.): 85.88% | Rate of suppression (%) ([2]; pH 7.8, 3 days, 37° C.): 31.60% | Rate of suppression (%) ([2]; pH 7.8, 6 days, 37° C.): 38.80% | activity of suppressing the proliferation of transformed cells by SV-40 virus (in words) ([2]; Example 4, pH range of from 6.5 to 7.8, 5 μg/ml): clearly showed an activity of suppressing the proliferation of transformed cells by SV-40 virus | Rate of suppression (%) ([5]; pH 6.5, 6 days): 27.83% | Rate of suppression (%) ([5]; pH 7.0, 6 days): 14.00% | Rate of suppression (%) ([5]; pH 7.8, 6 days): -1.10% | suppression of the proliferation of human renal cancer cells (RC) (in words) ([6]; Example 5, 6 days): clearly suppressed the proliferation of the human renal cancer cells (RC) | Rate of suppression (%) ([6]; pH 6.5, 6 days): 54.54% | Rate of suppression (%) ([6]; pH 7.0, 6 days): 46.68% | Rate of suppression (%) ([6]; pH 7.8, 6 days): 22.39% | Intaking of the test substance by 3T3 SV-40 cells compared to 3T3 cells ([3]; Example 7, 10 and 50 μg/ml, pH 6.5 and 7.8, 37° C., 5 days): remarkably recognized as compared to that by 3T3 cells | Intaking of the test substance by RC cells compared to FLOW 4000 cells [7]: remarkable as compared to that by the normal human cells (FLOW 4000) at both 37° and 40 °C | emitted light wave length ([4]; excitation light 356 nm): 520 nm

O=C(O)CCCc1ccc(N(CCCl)CCCl)cc1 [chlorambucil]
LD50 [8]: 20 mg/kg body weight
